Literature values as cited in US20260272607A1, “METHOD OF MARKING LESIONS” (Cook Medical Technologies LLC, priority 2023, published 2026).

Tested on: lung nodules
Conditions: ICG dye marking without use of a coil; prior experience

For CC1(C)C(/C=C/C=C/C=C/C=C2\N(CCCCS(=O)(=O)O)c3ccc4ccccc4c3C2(C)C)=[N+](CCCCS(=O)(=O)[O-])c2ccc3ccccc3c21 [ICG dye, indocyanine green], the “persistence of dye effect after ICG dye marking without a coil” value is given as “fade away over several hours”.
